In patent publication US20240239792A1, “MODULATORS OF BCL-2 OR BCL-2/BCL-XL AND USES THEREOF” (APPICINE THERAPEUTICS (HK) LIMITED, priority 2021, published 2024):

What was measured:
BCL-2 = biological target: T1, BCL-2 (Homo sapiens, UniProt P10415); assay: HTRF BCL-2/BAK assay (Cisbio); format: binding; conditions: recombinant human Tag1-BCL-2 2 nM, Tag2-BAK 10 nM
T1 construct: purchased Cisbio 63ADK000CB01PEG
Experimental: Then the pre-mixed anti-Tag1-Eu^3+ and anti-tag2-XL665 were added to the plate and further incubated at room temperature for another 2 hours. The signals ([…]) were read on Envision 2104 instrument. The IC50 for each compound was derived from fitting the signal of 665/615 nM to the increasing compound concentration.
Using the above assays, the following compounds were tested.

DOHH2 cells = assay: CellTiter-Glo cell proliferation assay, DOHH2 cells; format: cell-based; conditions: Homo sapiens, DOHH-2, 72 hours
Experimental: The CellTiter-Glo® Luminescent Cell Viability Assay (Promega, G7573) was used to study the cellular potency of disclosed compounds herein. The cells were harvested during the logarithmic growth period and counted with hemocytometer. The DOHH2 cells were seeded at 1.6*10^4 in 90 ul DMEM medium supplemented with 10% fetal bovine serum (FBS) (as RS4;11 cells were seeded at 4000 in 90 ul RPMI-1640 medium with 10% FBS) per well in 96-well plates and treated with 10 ul of a serial dilution of compounds disclosed herein (maximum concentration and dilution ratio determined by the results of pre-experiment may vary) for 72 hours in a 5% CO2 incubator at 37° C. Cell viability was assessed according to the manufacturer's recommendations. After the plates return to the room temperature, 100 ul of CellTiter-Glo® reagent was added to 100 ul of cell culture. The mixture was agitated on an orbital shaker for 2 minutes or placed it at room temperature for 10 minutes to allow cell lysis and stabilization of luminescent signals. Luminescent signals were recorded using Envision 2104 instrument. And GI50 values were then calculated.

T1 sequence (P10415 whole entry): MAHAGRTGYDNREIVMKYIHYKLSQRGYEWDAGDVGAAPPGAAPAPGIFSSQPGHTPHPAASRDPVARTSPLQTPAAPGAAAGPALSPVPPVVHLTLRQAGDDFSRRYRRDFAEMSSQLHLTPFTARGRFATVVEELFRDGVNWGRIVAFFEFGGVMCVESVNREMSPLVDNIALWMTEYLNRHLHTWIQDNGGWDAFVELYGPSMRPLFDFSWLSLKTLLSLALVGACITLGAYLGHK

Row | IC50 (BCL-2) | SMILES | GI50 (DOHH2 cells)
1 | < 20 nM | O=C(NS(=O)(=O)c1ccc(NCC2CC3(CCCCC3)C2)c([N+](=O)[O-])c1)c1ccc(N2CCN([C@@H]3CCCCc4c(Cl)cccc43)CC2)cc1Oc1cnc2[nH]ccc2c1 [Compound 132, (R)-2-((1H-pyrrolo[2,3-b]pyridin-5-yl)oxy)-4-(4-(1-chloro-6,7,8,9-tetrahydro-5H-benzo[7]annulen-5-yl)piperazin-1-yl)-N-((3-nitro-4-((spiro[3.5]nonan-2-ylmethyl)amino)phenyl)sulfonyl)benzamide] | 50 to 500 nM
2 | 20 to 200 nM | O=C(NS(=O)(=O)c1ccc(NCC2CCOCC2)c([N+](=O)[O-])c1)c1ccc(N2CCN(C3CCCCc4c(C5CCCC5)cccc43)CC2)cc1Oc1cnc2[nH]ccc2c1 (stereo not drawn) [Compound 55, 2-((1H-pyrrolo[2,3-b]pyridin-5-yl)oxy)-4-(4-(1-cyclopentyl-6,7,8,9-tetrahydro-5H-benzo[7]annulen-5-yl)piperazin-1-yl)-N-((3-nitro-4-(((tetrahydro-2H-pyran-4-yl)methyl)amino)phenyl)sulfonyl)benzamide] | > 5000 nM
3 | 20 to 200 nM | O=C(NS(=O)(=O)c1ccc(NCC2CCOCC2)c([N+](=O)[O-])c1)c1ccc(N2CCC3(CC2)CN(C2CCCCc4ccccc42)C3)cc1Oc1cnc2[nH]ccc2c1 (stereo not drawn) [Compound 93, 2-((1H-pyrrolo[2,3-b]pyridin-5-yl)oxy)-N-((3-nitro-4-(((tetrahydro-2H-pyran-4-yl)methyl)amino)phenyl)sulfonyl)-4-(2-(6,7,8,9-tetrahydro-5H-benzo[7]annulen-5-yl)-2,7-diazaspiro[3.5]nonan-7-yl)benzamide] | 500 to 5000 nM
4 | 200 to 2000 nM | O=C(NS(=O)(=O)c1cccc([N+](=O)[O-])c1)c1ccc(N2CCN(C3CCCc4cccc(-c5cccs5)c43)CC2)cc1Oc1cnc2[nH]ccc2c1 (stereo not drawn) [Compound 15, 2-((1H-pyrrolo[2,3-b]pyridin-5-yl)oxy)-N-((3-nitrophenyl)sulfonyl)-4-(4-(8-(thiophen-2-yl)-1,2,3,4-tetrahydronaphthalen-1-yl)piperazin-1-yl)benzamide] | –
5 | 20 to 200 nM | O=C(NS(=O)(=O)c1ccc(NCC2CCOCC2)c([N+](=O)[O-])c1)c1ccc(N2CC3(C2)CN(C2CCCCc4ccccc42)C3)cc1Oc1cnc2[nH]ccc2c1 (stereo not drawn) [Compound 95, 2-((1H-pyrrolo[2,3-b]pyridin-5-yl)oxy)-N-((3-nitro-4-(((tetrahydro-2H-pyran-4-yl)methyl)amino)phenyl)sulfonyl)-4-(6-(6,7,8,9-tetrahydro-5H-benzo[7]annulen-5-yl)-2,6-diazaspiro[3.3]heptan-2-yl)benzamide] | 500 to 5000 nM
6 | < 20 nM | O=C(NS(=O)(=O)c1ccc(NCC2CCOCC2)c([N+](=O)[O-])c1)c1ccc(N2CCN(C3CCCOc4ccccc43)CC2)cc1Oc1cnc2[nH]ccc2c1 (stereo not drawn) [Compound 36, 2-((1H-pyrrolo[2,3-b]pyridin-5-yl)oxy)-N-((3-nitro-4-(((tetrahydro-2H-pyran-4-yl)methyl)amino)phenyl)sulfonyl)-4-(4-(2,3,4,5-tetrahydrobenzo[b]oxepin-5-yl)piperazin-1-yl)benzamide] | 50 to 500 nM
7 | < 20 nM | CS(=O)(=O)N1CCc2ccccc2C(N2CCN(c3ccc(C(=O)NS(=O)(=O)c4ccc(NCC5CCOCC5)c([N+](=O)[O-])c4)c(Oc4cnc5[nH]ccc5c4)c3)CC2)C1 (stereo not drawn) [Compound 60, 2-((1H-pyrrolo[2,3-b]pyridin-5-yl)oxy)-4-(4-(3-(methylsulfonyl)-2,3,4,5-tetrahydro-1H-benzo[d]azepin-1-yl)piperazin-1-yl)-N-((3-nitro-4-(((tetrahydro-2H-pyran-4-yl)methyl)amino)phenyl)sulfonyl)benzamide] | > 5000 nM
8 | 200 to 2000 nM | O=C(NS(=O)(=O)c1cccc([N+](=O)[O-])c1)c1ccc(N2CCN(C3CCc4ccccc43)CC2)cc1Oc1cnc2[nH]ccc2c1 (stereo not drawn) [Compound 3, 2-((1H-pyrrolo[2,3-b]pyridin-5-yl)oxy)-4-(4-(2,3-dihydro-1H-inden-1-yl)piperazin-1-yl)-N-((3-nitrophenyl)sulfonyl)benzamide] | –
9 | < 20 nM | Nc1cccc2c1CCCCC2N1CCN(c2ccc(C(=O)NS(=O)(=O)c3ccc(NCC4CCOCC4)c([N+](=O)[O-])c3)c(Oc3cnc4[nH]ccc4c3)c2)CC1 (stereo not drawn) [Compound 58, 2-((1H-pyrrolo[2,3-b]pyridin-5-yl)oxy)-4-(4-(1-amino-6,7,8,9-tetrahydro-5H-benzo[7]annulen-5-yl)piperazin-1-yl)-N-((3-nitro-4-(((tetrahydro-2H-pyran-4-yl)methyl)amino)phenyl)sulfonyl)benzamide] | 500 to 5000 nM
10 | < 20 nM | O=C(NS(=O)(=O)c1ccc(NCC2CC3(CCC(F)(F)CC3)C2)c([N+](=O)[O-])c1)c1ccc(N2CCN([C@@H]3CCCCc4c(Cl)cccc43)CC2)cc1Oc1cnc2[nH]ccc2c1 [Compound 135, (R)-2-((1H-pyrrolo[2,3-b]pyridin-5-yl)oxy)-4-(4-(1-chloro-6,7,8,9-tetrahydro-5H-benzo[7]annulen-5-yl)piperazin-1-yl)-N-((4-(((7,7-difluorospiro[3.5]nonan-2-y1)methyl)amino)-3-nitrophenyl)sulfonyl)benzamide] | < 50 nM
11 | 20 to 200 nM | O=C(NS(=O)(=O)c1ccc(NCC2CCOCC2)c([N+](=O)[O-])c1)c1ccc(N2CCN(C3CCCc4ccccc43)CC2)cc1Oc1cnc2[nH]ccc2c1 (stereo not drawn) [Compound 2, 2-((1H-pyrrolo[2,3-b]pyridin-5-yl)oxy)-N-((3-nitro-4-(((tetrahydro-2H-pyran-4-yl)methyl)amino)phenyl)sulfonyl)-4-(4-(1,2,3,4-tetrahydronaphthalen-1-yl)piperazin-1-yl)benzamide] | > 5000 nM
12 | 200 to 2000 nM | O=C(NS(=O)(=O)c1cccc([N+](=O)[O-])c1)c1ccc(N2CCN(C3CCCc4cccc(-c5ccccc5)c43)CC2)cc1Oc1cnc2[nH]ccc2c1 (stereo not drawn) [Compound 8, 2-((1H-pyrrolo[2,3-b]pyridin-5-yl)oxy)-N-((3-nitrophenyl)sulfonyl)-4-(4-(8-phenyl-1,2,3,4-tetrahydronaphthalen-1-yl)piperazin-1-yl)benzamide] | –
13 | 200 to 2000 nM | O=C(NS(=O)(=O)c1cccc([N+](=O)[O-])c1)c1ccc(N2CCN(C3CCCc4ccccc43)CC2)cc1Oc1cnc2[nH]ccc2c1 (stereo not drawn) [Compound 1, 2-((1H-pyrrolo[2,3-b]pyridin-5-yl)oxy)-N-((3-nitrophenyl)sulfonyl)-4-(4-(1,2,3,4-tetrahydronaphthalen-1-yl)piperazin-1-yl)benzamide] | –
14 | – | CC1(C)CCC2(CC1)CC(CNc1ccc(S(=O)(=O)NC(=O)c3ccc(N4CCN([C@@H]5CCCCc6c(Cl)cccc65)CC4)cc3Oc3cnc4[nH]ccc4c3)cc1[N+](=O)[O-])C2 [Compound 136, (R)-2-((1H-pyrrolo[2,3-b]pyridin-5-yl)oxy)-4-(4-(1-chloro-6,7,8,9-tetrahydro-5H-benzo[7]annulen-5-yl)piperazin-1-y1)-N-((4-(((7,7-dimethylspiro[3.5]nonan-2-yl)methyl)amino)-3-nitrophenyl)sulfonyl)benzamide] | > 5000 nM
15 | 20 to 200 nM | O=C(NS(=O)(=O)c1ccc(NCC2CCOCC2)c([N+](=O)[O-])c1)c1ccc(N2CCN(C3CCOc4ccccc43)CC2)cc1Oc1cnc2[nH]ccc2c1 (stereo not drawn) [Compound 17, 2-((1H-pyrrolo[2,3-b]pyridin-5-yl)oxy)-4-(4-(chroman-4-yl)piperazin-1-yl)-N-((3-nitro-4-(((tetrahydro-2H-pyran-4-yl)methyl)amino)phenyl)sulfonyl)benzamide] | 500 to 5000 nM
16 | < 20 nM | O=C(NS(=O)(=O)c1ccc(NCC2CC3CC2CN3)c([N+](=O)[O-])c1)c1ccc(N2CCN([C@@H]3CCCCc4c(Cl)cccc43)CC2)cc1Oc1cnc2[nH]ccc2c1 (stereo partly drawn) [Compound 105, 2-((1H-pyrrolo[2,3-b]pyridin-5-yl)oxy)-N-((4-(((2-azabicyclo[2.2.1]heptan-5-yl)methyl)amino)-3-nitrophenyl)sulfonyl)-4-(4-((R)-1-chloro-6,7,8,9-tetrahydro-5H-benzo[7]annulen-5-yl)piperazin-1-yl)benzamide] | 50 to 500 nM
17 | 200 to 2000 nM | O=C(NS(=O)(=O)c1cccc([N+](=O)[O-])c1)c1ccc(N2CCN(C3CCCc4cccc(-c5cccc(Cl)c5)c43)CC2)cc1Oc1cnc2[nH]ccc2c1 (stereo not drawn) [Compound 14, 2-((1H-pyrrolo[2,3-b]pyridin-5-yl)oxy)-4-(4-(8-(3-chlorophenyl)-1,2,3,4-tetrahydronaphthalen-1-yl)piperazin-1-yl)-N-((3-nitrophenyl)sulfonyl)benzamide] | –
18 | 200 to 2000 nM | O=C(NS(=O)(=O)c1cccc([N+](=O)[O-])c1)c1ccc(N2CCN(C3CCOc4ccccc43)CC2)cc1Oc1cnc2[nH]ccc2c1 (stereo not drawn) [Compound 9, 2-((1H-pyrrolo[2,3-b]pyridin-5-yl)oxy)-4-(4-(chroman-4-yl)piperazin-1-yl)-N-((3-nitrophenyl)sulfonyl)benzamide] | –
19 | 200 to 2000 nM | O=C(NS(=O)(=O)c1cccc([N+](=O)[O-])c1)c1ccc(N2CCN(C3CCCc4cccc(-c5ccsc5)c43)CC2)cc1Oc1cnc2[nH]ccc2c1 (stereo not drawn) [Compound 11, 2-((1H-pyrrolo[2,3-b]pyridin-5-yl)oxy)-N-((3-nitrophenyl)sulfonyl)-4-(4-(8-(thiophen-3-yl)-1,2,3,4-tetrahydronaphthalen-1-yl)piperazin-1-yl)benzamide] | –
